Laboratory results taken from patent publication US12637424B2, “Pharmaceutical salt of an arylpyrrole derivative” (SENTINEL ONCOLOGY LIMITED, priority 2020, dated 2026).
One block for each compound: values may come before it.

Key:
Test in all cases: Cancer cell line panel proliferation (CellTiter-Glo)
Format in all cases: cell-based
Z-138 = conditions: Z-138, Blood/Lymphoma, 72 hours
Description: (§1) Screening against diverse cancer cell lines was performed to identify tumour types displaying sensitivity to atropisomers A-1 and A-2. A panel of 48 cancer-derived cell lines was screened in a high-throughput proliferation assay using dilutions of atropisomers A-1/A-2. Cell lines that were screened included those representing cancer of the pancreas, large intestine/colorectum, lung, brain and nerves, and lymphoma and leukaemia cell lines. Cell lines were treated with serial half-log dilutions of compound and assayed 72 hours later for proliferation using CellTiter-Glo Assay (Promega). IC50 values were calculated by fitting the dose-response data using a nonlinear regression model.

HBL-1 = conditions: HBL-1, Blood/Lymphoma, 72 hours
Description: as §1

WSU-DLCL2 = conditions: WSU-DLCL2, Blood/Lymphoma, 72 hours
Description: as §1

U-2932 = conditions: U-2932, Blood/Lymphoma, 72 hours
Description: as §1

GRANTA-519 = conditions: GRANTA-519, Blood/Lymphoma, 72 hours
Description: as §1

A549 = conditions: A549, Lung, 72 hours
Description: as §1

Kasumi-1 = conditions: Kasumi-1, Blood/Leukaemia, 72 hours
Description: as §1

JVM-2 = conditions: JVM-2, Blood/Lymphoma, 72 hours
Description: as §1

Raji = conditions: Blood/Lymphoma, 72 hours
Description: as §1

Capan-1 = conditions: Capan-1, Pancreas, 72 hours
Description: as §1

PANC-1 = conditions: PANC-1, Pancreas, 72 hours
Description: as §1

SW620 = conditions: SW620, Large intestine/Colorectum, 72 hours
Description: as §1

NCI-H1975 = conditions: NCI-H1975, Lung, 72 hours
Description: as §1

T98G = conditions: Brain&Nerves, 72 hours
Description: as §1

NAMALWA = conditions: Blood/Lymphoma, 72 hours
Description: as §1

U118 MG = conditions: Brain&Nerves, 72 hours
Description: as §1

NCI-H1792 = conditions: NCI-H1792, Lung, 72 hours
Description: as §1

BxPC-3 = conditions: BxPC-3, Pancreas, 72 hours
Description: as §1

Daudi = conditions: Blood/Lymphoma, 72 hours
Description: as §1

LN-229 = conditions: LN-229, Brain&Nerves, 72 hours
Description: as §1

HCC44 = conditions: HCC44, Lung, 72 hours
Description: as §1

MV-4-11 = conditions: MV-4-11, Blood/Leukaemia, 72 hours
Description: as §1

Toledo = conditions: Blood/Lymphoma, 72 hours
Description: as §1

Ramos = conditions: Blood/Lymphoma, 72 hours
Description: as §1

SK-MES-1 = conditions: SK-MES-1, Lung, 72 hours
Description: as §1

Panc 10.05 = conditions: Panc 10.05, Pancreas, 72 hours
Description: as §1

A-172 = conditions: A-172, Brain&Nerves, 72 hours
Description: as §1

NCI-H1373 = conditions: NCI-H1373, Lung, 72 hours
Description: as §1

MIA PaCa-2 = conditions: MIA PaCa-2, Pancreas, 72 hours
Description: as §1

SW1088 = conditions: SW1088, Brain&Nerves, 72 hours
Description: as §1

COLO 205 = conditions: COLO 205, Large intestine/Colorectum, 72 hours
Description: as §1

Daoy = conditions: Brain&Nerves, 72 hours
Description: as §1

SW480 = conditions: SW480, Large intestine/Colorectum, 72 hours
Description: as §1

LoVo = conditions: Large intestine/Colorectum, 72 hours
Description: as §1

NCI-H460 = conditions: NCI-H460, Lung, 72 hours
Description: as §1

DOHH-2 = conditions: DOHH-2, Blood/Lymphoma, 72 hours
Description: as §1

HCT 116 = conditions: HCT 116, Large intestine/Colorectum, 72 hours
Description: as §1

KG-1 = conditions: KG-1, Blood/Leukaemia, 72 hours
Description: as §1

RKO = conditions: Large intestine/Colorectum, 72 hours
Description: as §1

ML-2 = conditions: ML-2, Blood/Leukaemia, 72 hours
Description: as §1

HT-29 = conditions: HT-29, Large intestine/Colorectum, 72 hours
Description: as §1

SU-DHL-2 = conditions: SU-DHL-2, Blood/Lymphoma, 72 hours
Description: as §1

- IC50 (Z-138; Homo sapiens): 0.21 µM
- IC50 (HBL-1; HBL1): 0.66 µM
- IC50 (WSU-DLCL2; Homo sapiens, WSUDLCL2): 0.36 µM
- IC50 (GRANTA-519; Homo sapiens): 0.22 µM
- IC50 (A549; Homo sapiens): 0.3 µM
- IC50 (Kasumi-1; Homo sapiens): 0.33 µM
- IC50 (JVM-2; Homo sapiens): 0.38 µM
- IC50 (Raji; Homo sapiens): 0.36 µM
- IC50 (Capan-1; Homo sapiens): 1.23 µM
- IC50 (PANC-1; Homo sapiens): 0.83 µM
- IC50 (SW620; Homo sapiens, SW-620): 0.19 µM
- IC50 (NCI-H1975; Homo sapiens): 0.63 µM
- IC50 (T98G; Homo sapiens): 0.28 µM
- IC50 (NAMALWA): 0.25 µM
- IC50 (U118 MG; Homo sapiens, U-118-MG): 0.47 µM
- IC50 (NCI-H1792; Homo sapiens): 0.25 µM
- IC50 (BxPC-3; Homo sapiens): 0.3 µM
- IC50 (Daudi; Homo sapiens): 0.39 µM
- IC50 (LN-229; Homo sapiens): 0.31 µM
- IC50 (HCC44; Homo sapiens): 0.48 µM
- IC50 (MV-4-11; Homo sapiens, MV4-11): 0.28 µM
- IC50 (Toledo; Homo sapiens): 0.88 µM
- IC50 (Ramos; Homo sapiens): 0.34 µM
- IC50 (SK-MES-1; Homo sapiens): 0.36 µM
- IC50 (Panc 10.05; Homo sapiens, Panc1005): 1.14 µM
- IC50 (A-172; Homo sapiens): 0.34 µM
- IC50 (NCI-H1373; Homo sapiens): 3.21 µM
- IC50 (MIA PaCa-2; Homo sapiens): 0.33 µM
- IC50 (SW1088; Homo sapiens): 0.77 µM
- IC50 (COLO 205; Homo sapiens): 0.38 µM
- IC50 (Daoy; Homo sapiens): 0.18 µM
- IC50 (SW480; Homo sapiens): 0.87 µM
- IC50 (LoVo; Homo sapiens): 0.54 µM
- IC50 (NCI-H460; Homo sapiens): 0.3 µM
- IC50 (DOHH-2; Homo sapiens): 0.23 µM
- IC50 (HCT 116; Homo sapiens): 0.23 µM
- IC50 (KG-1; Homo sapiens): 0.46 µM
- IC50 (RKO; Homo sapiens): 0.16 µM
- IC50 (ML-2; Homo sapiens): 0.18 µM
- IC50 (HT-29; Homo sapiens): 0.45 µM
- IC50 (SU-DHL-2; Homo sapiens): 0.2 µM
SMILES: CN(C)CCNC(=O)c1ccc(-c2ccc(-c3ccc(Cl)cc3)n2-c2ccccc2C(F)(F)F)cc1 (single isomer, unassigned) [Atropisomer A-2]
- IC50 (U-2932; Homo sapiens, U2932): 0.28 µM

- IC50 (Z-138): 7.04 µM
- IC50 (HBL-1): 9.94 µM
- IC50 (WSU-DLCL2): 6.74 µM
- IC50 (GRANTA-519): 7.42 µM
- IC50 (A549): 9.19 µM
- IC50 (Kasumi-1): 5.13 µM
- IC50 (JVM-2): 4.71 µM
- IC50 (Raji): 3.91 µM
- IC50 (Capan-1): > 10 µM
- IC50 (PANC-1): > 10 µM
- IC50 (SW620): 8.35 µM
- IC50 (NCI-H1975): 5.14 µM
- IC50 (T98G): 5.26 µM
- IC50 (NAMALWA): 7.05 µM
- IC50 (U118 MG): 7.6 µM
- IC50 (NCI-H1792): 7.73 µM
- IC50 (BxPC-3): 6.97 µM
- IC50 (Daudi): 7.17 µM
- IC50 (LN-229): 7.37 µM
- IC50 (HCC44): 8.26 µM
- IC50 (MV-4-11): 6.49 µM
- IC50 (Toledo): > 10 µM
- IC50 (Ramos): 3.99 µM
- IC50 (SK-MES-1): 7.78 µM
- IC50 (Panc 10.05): 9 µM
- IC50 (A-172): 7.07 µM
- IC50 (NCI-H1373): > 10 µM
- IC50 (MIA PaCa-2): 9.17 µM
- IC50 (SW1088): 8.49 µM
- IC50 (COLO 205): 6.75 µM
- IC50 (Daoy): 7 µM
- IC50 (SW480): 7.55 µM
- IC50 (LoVo): 8.36 µM
- IC50 (NCI-H460): 8.13 µM
- IC50 (DOHH-2): 5.64 µM
- IC50 (HCT 116): 7.36 µM
- IC50 (KG-1): > 10 µM
- IC50 (RKO): 6.17 µM
- IC50 (ML-2): 4.01 µM
- IC50 (HT-29): 4.53 µM
- IC50 (SU-DHL-2): 7.01 µM
SMILES: CN(C)CCNC(=O)c1ccc(-c2ccc(-c3ccc(Cl)cc3)n2-c2ccccc2C(F)(F)F)cc1 (single isomer, unassigned; atropisomer a) [Atropisomer A-1]
- IC50 (U-2932): 4.47 µM
